Measurements taken from US20110038885A1, “CHEMOKINE ANALOGS” (priority 2007, published 2011).
Bridge positions count the residues as written; N and C are the ends. Peptide text beside a SMILES is read from it.

What was measured:
MCP-1 = experiment: In vitro chemotaxis (trans-well migration) v MCP-1; assay type: cell-based, human
Summary of the method: (§1)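 Trans-well migration toward IL-8 or MCP-1 placed below, with agent added to THP-1 cells (10^4-10^6) in the top well and incubation at 37° C (e.g. 4 hours). MTT absorbance at 595 nm, interpolated on a cell standard curve, gives migrated cell numbers; TGFβ-type negative control and cytotoxicity check included.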

Half-life in rat in vivo = settings: read-out: T ½ rat in vivo
IL-8 = experiment: In vitro chemotaxis, inhibition v IL-8; assay type: cell-based, human; design: concentration or dose not given beside the values
Summary of the method: as §1

[1] = Half-life in rat plasma in vitro; assay type: in vitro ADME; settings: read-out: T ½ rat plasma in vitro (converted)

EC50 (MCP-1)	half-life (Half-life in rat in vivo)	half-life [1]	SMILES	v IL-8 inhibition (%) (IL-8)
12 nM	19 min	> 1680 min	CC[C@H](C)[C@@H]1NC(=O)[C@H](Cc2c[nH]c3ccccc23)NC(=O)[C@H](CCCCN)NC(=O)[C@@H](N)CSSC[C@@H](C(N)=O)NC(=O)[C@H](CCC(N)=O)NC1=O [Example 1, c(Cys-Lys-Trp-Ile-Gln-Cys)-NH2] (H-CKWIQC-NH2; disulfide 1-6)	86.7%
20 nM	6 min	> 900 min	CC[C@H](C)[C@@H]1NC(=O)[C@H](Cc2c[nH]c3ccccc23)NC(=O)[C@H](CCCCN)NC(=O)[C@H](CCC(N)=O)NC(=O)[C@H](CCCCN)NC(=O)[C@@H]2CCCN2C(=O)[C@H](CC(=O)O)NC(=O)[C@H](CC(C)C)NC(=O)[C@@H](N)CSSC[C@@H](C(N)=O)NC(=O)[C@H](CCC(N)=O)NC1=O [Example 33, c(Cys-Leu-Asp-Pro-Lys-Gln-Lys-Trp-Ile-Gln-Cys)-NH2] (H-CLDPKQKWIQC-NH2; disulfide 1-11)	90.0%
20 nM	33 min	666 min	CC(C)[C@H](NC(=O)[C@H](Cc1c[nH]c2ccccc12)NC(=O)OC(C)(C)C)C(=O)NC1CCC(=O)NC1=O (stereo partly drawn) [Example 164, BOC-Trp-Val-α-aminoglutaramide]	104.4%
